Test results published in patent US8846947B2, “Benzimidazoles and related analogs as sirtuin modulators” (GlaxoSmithKline LLC, priority 2008, dated 2014).

Biological target: T1, SIRT1 (Homo sapiens, UniProt Q96EB6)
T1 sequence (Q96EB6 1-747): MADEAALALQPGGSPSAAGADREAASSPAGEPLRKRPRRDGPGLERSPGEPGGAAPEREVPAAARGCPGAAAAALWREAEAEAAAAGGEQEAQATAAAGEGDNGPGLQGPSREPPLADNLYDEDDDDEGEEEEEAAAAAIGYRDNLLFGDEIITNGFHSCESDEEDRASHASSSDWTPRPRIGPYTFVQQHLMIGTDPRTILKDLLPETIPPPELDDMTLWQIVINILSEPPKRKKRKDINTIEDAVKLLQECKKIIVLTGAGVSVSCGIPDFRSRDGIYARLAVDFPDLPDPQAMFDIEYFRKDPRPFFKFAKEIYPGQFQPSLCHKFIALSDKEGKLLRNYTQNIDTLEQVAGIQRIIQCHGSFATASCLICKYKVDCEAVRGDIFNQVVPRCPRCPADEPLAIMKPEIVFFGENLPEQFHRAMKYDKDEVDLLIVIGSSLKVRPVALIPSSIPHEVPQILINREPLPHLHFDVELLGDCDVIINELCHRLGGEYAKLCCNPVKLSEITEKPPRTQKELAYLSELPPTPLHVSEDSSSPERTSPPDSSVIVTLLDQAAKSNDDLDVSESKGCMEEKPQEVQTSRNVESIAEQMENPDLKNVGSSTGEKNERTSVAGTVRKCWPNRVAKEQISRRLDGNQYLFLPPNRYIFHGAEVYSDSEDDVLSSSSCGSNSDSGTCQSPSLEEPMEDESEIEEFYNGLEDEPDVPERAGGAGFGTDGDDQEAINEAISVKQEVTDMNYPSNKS
Assay: Mass spectrometry based SIRT1 deacetylase activation assay (acetylated p53-derived peptide substrate)
Type: biochemical
Conditions: 0.5 μM peptide substrate, 120 μM βNAD+, 10 nM SIRT1, 25 min at 25° C.; for EC1.5: read-out: EC1.5

| SMILES | Fold Act. (percent maximum fold activation) | EC1.5 |
| --- | --- | --- |
| O=C(Nc1nccs1)c1cccc2[nH]c(-c3ccccc3OCCN3CCNCC3)nc12 [Compound 483] | A (Fold activation >200%) | 1000 to 25000 nM |
| O=C(Nc1ccccn1)c1cccc2[nH]c(-c3ccccc3OCCN3CCNCC3)nc12 [Compound 484] | A (Fold activation >200%) | 1000 to 25000 nM |
| CC(C)N1CCN(CCOc2ccccc2-c2nc3c(C(=O)Nc4nccs4)cccc3[nH]2)CC1 [Compound 485] | A (Fold activation >200%) | 1000 to 25000 nM |
| CC(C)N1CCN(CCOc2ccccc2-c2nc3c(C(=O)Nc4ccccn4)cccc3[nH]2)CC1 [Compound 486] | A (Fold activation >200%) | 1000 to 25000 nM |
| Cc1cc(NC(=O)c2cccc3[nH]c(-c4ccccc4OCCN4CCOCC4)nc23)n(C)n1 [Compound 487] | A (Fold activation >200%) | 1000 to 25000 nM |
| O=C(Nc1cccnn1)c1cccc2[nH]c(-c3ccccc3OCCN3CCOCC3)nc12 [Compound 488] | B (Fold Activation <200%) | 1000 to 25000 nM |
| O=C(Nc1cnccn1)c1cccc2[nH]c(-c3ccccc3OCCN3CCOCC3)nc12 [Compound 489] | B (Fold Activation <200%) | 1000 to 25000 nM |
| O=C(Nc1ccc(OCC(O)CO)cc1)c1cccc2[nH]c(-c3ccccc3C(F)(F)F)nc12 (centres unmarked) [Compound 492] | A (Fold activation >200%) | < 1000 nM |
| O=C(Nc1ccc(OCC(O)CO)cc1)c1cccc2[nH]c(-c3cc(F)ccc3C(F)(F)F)nc12 (centres unmarked) [Compound 494] | A (Fold activation >200%) | < 1000 nM |
| Cc1cnc(NC(=O)c2cccc3[nH]c(-c4c(C(F)(F)F)nn(C)c4Cl)nc23)s1 [Compound 495] | A (Fold activation >200%) | < 1000 nM |
| O=C(Nc1ccccn1)c1cccc2[nH]c(-c3cccc4c3OC(F)(F)O4)nc12 [Compound 496] | A (Fold activation >200%) | < 1000 nM |
| Cc1cnc(NC(=O)c2cccc3[nH]c(-c4ccc5c(c4)CC(C)(C)O5)nc23)s1 [Compound 500] | A (Fold activation >200%) | < 1000 nM |
| O=C(Nc1nccs1)c1cccc2[nH]c(-c3cc(Cl)ccc3OCCN3CCOCC3)nc12 [Compound 501] | A (Fold activation >200%) | < 1000 nM |
| O=C(Nc1nccs1)c1cccc2[nH]c(-c3ccc(F)cc3OCCN3CCOCC3)nc12 [Compound 503] | B (Fold Activation <200%) | 1000 to 25000 nM |
| O=C(Nc1ccccn1)c1cccc2[nH]c(-c3ccc(F)cc3OCCN3CCOCC3)nc12 [Compound 504] | B (Fold Activation <200%) | 1000 to 25000 nM |
| Cc1cc(Cl)cc(-c2nc3c(C(=O)Nc4nccs4)cccc3[nH]2)c1OCCN1CCOCC1 [Compound 505] | A (Fold activation >200%) | 1000 to 25000 nM |

| SMILES | Fold Act. (percent maximum fold activation) | EC1.5 |
| --- | --- | --- |
| Cc1cc(Cl)cc(-c2nc3c(C(=O)Nc4ccccn4)cccc3[nH]2)c1OCCN1CCOCC1 [Compound 506] | B (Fold Activation <200%) | 1000 to 25000 nM |
| O=C(Nc1nccs1)c1cccc2[nH]c(-c3ccccc3OCCN3CC[C@@H](F)C3)nc12 [Compound 507] | B (Fold Activation <200%) | 1000 to 25000 nM |
| O=C(Nc1ccccn1)c1cccc2[nH]c(-c3ccccc3OCCN3CC[C@@H](F)C3)nc12 [Compound 508] | A (Fold activation >200%) | 1000 to 25000 nM |
| O=C(Nc1nccs1)c1cccc2[nH]c(-c3ccccc3OCCN3CC[C@H](F)C3)nc12 [Compound 509] | B (Fold Activation <200%) | < 1000 nM |
| O=C(Nc1ccccn1)c1cccc2[nH]c(-c3ccccc3OCCN3CC[C@H](F)C3)nc12 [Compound 510] | B (Fold Activation <200%) | 1000 to 25000 nM |
| O=C(Nc1nccs1)c1cccc2[nH]c(-c3cc(F)ccc3C(F)F)nc12 [Compound 511] | A (Fold activation >200%) | 1000 to 25000 nM |
| Cc1cnc(NC(=O)c2cccc3[nH]c(-c4cc(F)ccc4C(F)F)nc23)s1 [Compound 512] | A (Fold activation >200%) | < 1000 nM |
| O=C(Nc1nccs1)c1cccc2[nH]c(-c3ccccc3C(F)F)nc12 [Compound 514] | A (Fold activation >200%) | < 1000 nM |
| Cc1cnc(NC(=O)c2cccc3[nH]c(-c4ccccc4C(F)F)nc23)s1 [Compound 515] | A (Fold activation >200%) | < 1000 nM |
| Cc1cc(NC(=O)c2cccc3[nH]c(-c4cnc5c(c4)OCCN5C)nc23)n(C)n1 [Compound 523] | B (Fold Activation <200%) | > 25000 nM |
| O=C(Nc1cccc(OC2CCNC2)c1)c1cccc2[nH]c(-c3cc(F)ccc3C(F)(F)F)nc12 (centres unmarked) [Compound 524] | A (Fold activation >200%) | < 1000 nM |
| O=C(Nc1cccc(OC2CCNCC2)c1)c1cccc2[nH]c(-c3cc(F)ccc3C(F)(F)F)nc12 [Compound 525] | A (Fold activation >200%) | < 1000 nM |
| O=C(Nc1cccc(OC2CCNC2)c1)c1cccc2[nH]c(-c3ccccc3C(F)(F)F)nc12 (centres unmarked) [Compound 526] | A (Fold activation >200%) | < 1000 nM |
| CN1CCN(c2cccc(-c3nc4c(C(=O)Nc5nccs5)cccc4[nH]3)c2)CC1 [Compound 527] | A (Fold activation >200%) | < 1000 nM |
| CN1CCN(c2cccc(-c3nc4c(C(=O)Nc5ccccn5)cccc4[nH]3)c2)CC1 [Compound 528] | A (Fold activation >200%) | < 1000 nM |

The next lines start with the values.

| Fold Act. (percent maximum fold activation) | EC1.5 | SMILES |
| --- | --- | --- |
| A (Fold activation >200%) | < 1000 nM | O=C(Nc1cccc(CN2CCCC2)c1)c1cccc2[nH]c(-c3ccc(Cl)cc3C(F)(F)F)nc12 [Compound 490, 2-(4-chloro-2-(trifluoromethyl)phenyl)-N-(3-(pyrrolidin-1-ylmethyl)phenyl)-1H-benzo[d]imidazole-4-carboxamide] |
| A (Fold activation >200%) | < 1000 nM | O=C(Nc1ccc(CN2CCCC2)cc1)c1cccc2[nH]c(-c3ccc(Cl)cc3C(F)(F)F)nc12 [Compound 491] |
| A (Fold activation >200%) | < 1000 nM | O=C(Nc1ccc(OCC(O)CO)cc1)c1cccc2[nH]c(-c3ccc(Cl)cc3C(F)(F)F)nc12 (centres unmarked) [Compound 493] |
| A (Fold activation >200%) | 1000 to 25000 nM | CCCN1CCCc2ccc(-c3nc4c(C(=O)Nc5cccnc5)cccc4[nH]3)cc21 [Compound 497] |
| B (Fold Activation <200%) | 1000 to 25000 nM | CC1(C)Cc2cc(-c3nc4c(C(=O)Nc5ccccn5)cccc4[nH]3)ccc2O1 [Compound 498] |
| A (Fold activation >200%) | 1000 to 25000 nM | CC1(C)Cc2cc(-c3nc4c(C(=O)Nc5cccnc5)cccc4[nH]3)ccc2O1 [Compound 499] |
| A (Fold activation >200%) | 1000 to 25000 nM | O=C(Nc1ccccn1)c1cccc2[nH]c(-c3cc(Cl)ccc3OCCN3CCOCC3)nc12 [Compound 502] |
| A (Fold activation >200%) | < 1000 nM | O=C(Nc1ccccn1)c1cccc2[nH]c(-c3cc(F)ccc3C(F)F)nc12 [Compound 513] |
| A (Fold activation >200%) | < 1000 nM | O=C(Nc1ccccn1)c1cccc2[nH]c(-c3ccccc3C(F)F)nc12 [Compound 516] |
| A (Fold activation >200%) | 1000 to 25000 nM | CS(=O)(=O)c1ccccc1-c1nc2c(C(=O)Nc3nccs3)cccc2[nH]1 [Compound 517] |
| A (Fold activation >200%) | 1000 to 25000 nM | CS(=O)(=O)c1ccccc1-c1nc2c(C(=O)Nc3cccnc3)cccc2[nH]1 [Compound 518] |
| A (Fold activation >200%) | < 1000 nM | CS(=O)(=O)c1ccccc1-c1nc2c(C(=O)Nc3ccccn3)cccc2[nH]1 [Compound 519] |
| A (Fold activation >200%) | 1000 to 25000 nM | CS(=O)(=O)c1cc(Cl)ccc1-c1nc2c(C(=O)Nc3nccs3)cccc2[nH]1 [Compound 520] |
| A (Fold activation >200%) | 1000 to 25000 nM | CS(=O)(=O)c1cc(Cl)ccc1-c1nc2c(C(=O)Nc3cccnc3)cccc2[nH]1 [Compound 521] |
| A (Fold activation >200%) | < 1000 nM | CS(=O)(=O)c1cc(Cl)ccc1-c1nc2c(C(=O)Nc3ccccn3)cccc2[nH]1 [Compound 522] |
